Data from PubChem BioAssay (NCI).
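Assay format: 96-well plates, 48-hour exposure. Definition used: TGI = concentration required for complete inhibition of growth.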 Peptide text beside a SMILES is read from it. * marks the point of attachment. X26 = Clc1c(Cl)c(Cl)c(O*)c(Cl)c1Cl; Boc = CC(C)(C)OC(=O)*; OBn = c1ccc(CO*)cc1; Bn = c1ccc(C*)cc1

Experiments:
Experiment in all cases: NCI-60 cell line screen, 48 h
UACC-62 melanoma = system: UACC-62 melanoma
NCI-H23 lung = system: NCI-H23 lung
A549 NSCLC = system: A549 NSCLC
HS 578T breast = system: HS 578T breast
MDA-N = system: MDA-N
HCT-15 colon = system: HCT-15 colon
MCF7 breast = system: MCF7 breast
786-0 renal = system: 786-0 renal
DU-145 prostate = system: DU-145 prostate
RPMI-8226 leukemia = system: RPMI-8226 leukemia

SMILES | TGI (UACC-62 melanoma) [µM] | TGI (NCI-H23 lung) [µM] | TGI (A549 NSCLC) [µM] | TGI (HS 578T breast) [µM] | TGI (MDA-N) [µM] | TGI (HCT-15 colon) [µM] | TGI (MCF7 breast) [µM] | TGI (786-0 renal) [µM] | TGI (DU-145 prostate) [µM] | TGI (RPMI-8226 leukemia) [µM]
Cc1ccc2c(c1C)CC1(Cc3c(C)ccc(C)c3C1=O)C2=O (stereo not given) | > 100 | > 100 | > 100 | > 100 | > 100 | > 100 | > 100 | > 100 | > 100 | > 100
COc1ccc(OC/C(N=Cc2ccncc2)=N/NC(=O)c2ccncc2)cc1 | > 100 | > 100 | > 100 | > 100 | 39.8 | > 100 | > 100 | > 100 | > 100 | > 100
CC1CCc2sc3nc4n(c(=O)c3c2C1)CC(C)S4 (stereo not given) | 38.7 | > 100 | 70.5 | > 100 | 92.8 | > 100 | 52.5 | 65.6 | > 100 | > 100
O=C(O)C1=NN(c2ccc(S(=O)(=O)O)cc2)C2(C1)C(Cl)C(=O)N2c1nc2ccccc2s1 (stereo not given) | 29.5 | 30.2 | 35.2 | > 100 | 53.1 | 42.4 | 29.9 | 32 | 55.9 | 35.6
C[n+]1c(-c2ccc(NC(=O)c3ccc(C(=O)Nc4ccc(-c5cn6ccccc6[n+]5C)cc4)cc3)cc2)cn2ccccc21 | > 100 | > 100 | > 100 | > 100 | > 100 | > 100 | > 100 | > 100 | > 100 | > 100
NCCN(CCN(C(=O)Nc1ccccc1)c1ccccc1)C(=O)Nc1ccccc1 | 35.3 | 63 | > 100 | 56 | 47.8 | 76.4 | 46.6 | 55.4 | 40.1 | > 100
C=C1CC(COc2ccc3c(C)c(C)c(=O)oc3c2C)(c2ccccc2)OC1=O (stereo not given) | 3.42 | 4.64 | 26.7 | 13 | 4.4 | 3.84 | 3.56 | 2.78 | 6 | 0.764
Clc1ccc(OCc2nnc(COc3ccc(OCc4nnc(COc5ccc(Cl)cc5Cl)o4)c(Cl)c3)o2)c(Cl)c1 | > 100 | > 100 | > 100 | > 100 | > 100 | > 100 | > 100 | > 100 | > 100 | 39.6
O=C(Sc1c(-c2ccccc2)c(=O)n(-c2ccccc2)c(=S)n1-c1ccccc1)c1ccco1 | > 100 | > 100 | > 100 | > 100 | > 100 | > 100 | > 100 | > 100 | > 100 | > 83.7
COc1ccc(C2=C(Cl)C(=O)O/C2=C\c2ccc(OC)c(Br)c2)cc1Cl | 74.9 | 32 | > 100 | > 100 | > 100 | > 100 | 46.9 | 39.1 | > 100 | > 100
Cc1nc(SCC(N)=O)c2sc(=S)n(-c3ccccc3)c2n1 | > 10 | > 10 | > 10 | > 10 | > 10 | > 10 | > 10 | > 10 | > 10 | > 10
NC(N)=NS(=O)(=O)c1ccc(NC(=O)c2cccc3c(NNc4ccc(S(N)(=O)=O)cc4)c4ccccc4nc23)cc1 | > 100 | > 100 | > 100 | > 100 | > 100 | > 100 | 86.3 | > 100 | > 100 | > 100
NCCCCNCCCNC(=O)CNC(=O)CC(O)C(N)CCCC(NC(=O)C(CN)NC(=O)C(O)CNC(=O)CC(N)c1ccc(O)cc1)C(=O)O (stereo not given) | > 10 | > 10 | > 10 | > 10 | > 10 | > 10 | > 10 | > 10 | > 10 | > 10
O=C1N/N=C\c2ccc(cc2)OCc2cccc(n2)COc2ccc(cc2)/C=N\NC1=O | > 25 | > 25 | > 25 | > 25 | > 25 | > 25 | > 25 | > 25 | > 25 | > 25
CC(C)CC(NC(=O)C(CCC(=O)OCc1ccccc1)NC(=O)OC(C)(C)C)C(=O)NC(COCc1ccccc1)C(=O)NC(Cc1ccccc1)C(=O)Oc1c(Cl)c(Cl)c(Cl)c(Cl)c1Cl (stereo not given) (Boc-E(OBn)LS(Bn)F-X26; configuration not given here) | 44.4 | 34.2 | 96 | 65.9 | 48.6 | 51 | 66.3 | 90.7 | > 100 | 76.6
Cc1ccc(C(=O)Cc2nc3c([nH]c2=O)c(C)nn3-c2ccccc2)c(C)c1 | > 10 | > 10 | > 10 | > 10 | > 10 | > 10 | > 10 | > 10 | > 10 | > 10
CCN(CC)c1ccc(NC(=S)NN(C)C)cc1 | > 10 | > 10 | > 10 | > 10 | > 10 | > 10 | > 10 | > 10 | > 10 | > 10

SMILES | TGI (UACC-62 melanoma) [µM] | TGI (NCI-H23 lung) [µM] | TGI (A549 NSCLC) [µM] | TGI (HS 578T breast) [µM] | TGI (MDA-N) [µM] | TGI (HCT-15 colon) [µM] | TGI (MCF7 breast) [µM] | TGI (786-0 renal) [µM] | TGI (DU-145 prostate) [µM] | TGI (RPMI-8226 leukemia) [µM]
CCCCCCCCCCCCNC(=O)CCC(NC(=O)c1ccc(N(C)Cc2cnc3nc(N)nc(N)c3n2)cc1)C(=O)NCCCCCCCCCCCC (stereo not given) | > 100 | > 100 | > 100 | > 100 | > 100 | > 100 | > 100 | > 100 | > 100 | > 100
O=[N+]([O-])/C(Cl)=C(/C(Cl)=C(Cl)Cl)N1CCCCC1 | 17.1 | 22.2 | 28.5 | 64.4 | 23.9 | 19.1 | 17.4 | 23.4 | 27 | 18.2
O=P1(C(O)/C=C/c2ccccc2)N(Cc2ccccc2)[C@@H]2CCCC[C@H]2N1Cc1ccccc1 (stereo not given in full) | 21.2 | 21.5 | 43 | 10.6 | 18.2 | 43.8 | 15.1 | 18.8 | 45.3 | 4.59
O=P(OCc1ccccc1)(OCc1ccccc1)C(O)/C=C/c1ccccc1 (stereo not given) | 31.4 | 44.6 | > 100 | 45.1 | 36 | > 100 | > 100 | 39.5 | > 100 | 82.8
Cn1nc2c(c1N)Cc1c(nn(C)c1N)-c1ccccc1-2 | > 100 | > 100 | > 100 | > 100 | > 100 | > 100 | > 100 | > 100 | > 100 | > 100
Clc1cc(C(c2cc(Cl)sc2Cl)c2cc(Cl)sc2Cl)c(Cl)s1 | > 100 | > 100 | > 100 | > 100 | > 100 | > 100 | > 100 | > 100 | > 100 | > 100
CC1(C)OC[C@@H](C[C@H](O)COCc2ccccc2)O1 | > 100 | > 100 | > 100 | > 100 | > 100 | > 100 | > 100 | > 100 | > 100 | > 100
COc1cc2[nH]c(=O)c3cc(-c4ccccc4)cc4c(Cl)nc(c1OC)c2c43 | 34.6 | 47.5 | > 71.7 | > 100 | 13.5 | > 75.8 | 7.71 | > 49.2 | > 100 | > 100
CC(=O)C1(O)CCC2(O)C3(O)CC=C4CC(O)CCC4(C)C3CC(OC(=O)c3ccc(O)cc3)C12C (stereo not given) | > 100 | > 100 | > 100 | > 100 | > 100 | > 100 | > 100 | > 100 | > 100 | > 100
O=C1c2cccnc2S(=O)(=O)N1c1ccc([N+](=O)[O-])cc1 | > 100 | > 100 | > 100 | > 100 | > 100 | > 100 | > 100 | > 100 | > 100 | > 100
O=C1/C(=C/c2ccncc2)C(n2cccc2)c2c(Br)sc(Br)c21 (stereo not given) | 7.5 | 11.6 | 34.5 | 18.1 | 8.36 | 11.1 | 12.7 | 11.5 | 12.9 | 7.2
Cc1ccc(S(=O)(=O)c2c(O)c3ccc(O)c(C)c3oc2=O)cc1 | > 100 | > 100 | > 100 | > 100 | > 100 | > 100 | > 100 | > 100 | > 100 | > 100
CCOc1snc(C(Cl)(Cl)Cl)c1Cl | > 100 | 44.3 | 95.4 | > 100 | > 100 | > 100 | 78.9 | > 100 | > 100 | 59.1
C[C@H](c1ccccc1)N1C(=O)[C@@H](OCc2ccccc2)[C@H]1[C@H](COC(=O)COCc1ccccc1)OCc1ccccc1 | > 100 | > 100 | > 100 | > 100 | > 100 | > 100 | > 100 | > 100 | > 100 | > 100
CC1(C)N=C(N)N=C(N)N1c1cccc(OCc2cccc(N)c2)c1 | > 100 | > 100 | > 100 | > 100 | > 100 | > 100 | > 100 | > 100 | > 100 | > 100
Cc1cn(CCCCCOC(=O)NC(CCCNC(N)=O)C(=O)O)c(=O)[nH]c1=O (stereo not given) | > 100 | > 100 | > 100 | > 100 | > 100 | > 100 | > 100 | > 100 | > 100 | > 100
